Measurements published in patent US5770617A, “Terbenzimidazoles useful as antifungal agents” (Rutgers, The State University of New Jersey, priority 1997, dated 1998).
“Also recorded” adds a separate entry of the source.

Legend:
[1] = target: T1, Aspergillus topoisomerase I (Aspergillus nidulans, UniProt Q5BGS7); experiment: Topoisomerase I cleavage assay, Aspergillus enzyme; format: biochemical; conditions: for inhibition (poisoning) of Aspergillus topoisomerase I, in words: DNA cleavage assay; for sensitivity of Aspergillus versus human topoisomerase I: cleavage assay, Aspergillus 60 units/reaction, human 150 units/reaction; for concentration at which extensive DNA cleavage was observed: DNA cleavage with Aspergillus topoisomerase I
T1 construct: about 105 kDa by phosphate transfer
T1 sequence (Q5BGS7 1-871): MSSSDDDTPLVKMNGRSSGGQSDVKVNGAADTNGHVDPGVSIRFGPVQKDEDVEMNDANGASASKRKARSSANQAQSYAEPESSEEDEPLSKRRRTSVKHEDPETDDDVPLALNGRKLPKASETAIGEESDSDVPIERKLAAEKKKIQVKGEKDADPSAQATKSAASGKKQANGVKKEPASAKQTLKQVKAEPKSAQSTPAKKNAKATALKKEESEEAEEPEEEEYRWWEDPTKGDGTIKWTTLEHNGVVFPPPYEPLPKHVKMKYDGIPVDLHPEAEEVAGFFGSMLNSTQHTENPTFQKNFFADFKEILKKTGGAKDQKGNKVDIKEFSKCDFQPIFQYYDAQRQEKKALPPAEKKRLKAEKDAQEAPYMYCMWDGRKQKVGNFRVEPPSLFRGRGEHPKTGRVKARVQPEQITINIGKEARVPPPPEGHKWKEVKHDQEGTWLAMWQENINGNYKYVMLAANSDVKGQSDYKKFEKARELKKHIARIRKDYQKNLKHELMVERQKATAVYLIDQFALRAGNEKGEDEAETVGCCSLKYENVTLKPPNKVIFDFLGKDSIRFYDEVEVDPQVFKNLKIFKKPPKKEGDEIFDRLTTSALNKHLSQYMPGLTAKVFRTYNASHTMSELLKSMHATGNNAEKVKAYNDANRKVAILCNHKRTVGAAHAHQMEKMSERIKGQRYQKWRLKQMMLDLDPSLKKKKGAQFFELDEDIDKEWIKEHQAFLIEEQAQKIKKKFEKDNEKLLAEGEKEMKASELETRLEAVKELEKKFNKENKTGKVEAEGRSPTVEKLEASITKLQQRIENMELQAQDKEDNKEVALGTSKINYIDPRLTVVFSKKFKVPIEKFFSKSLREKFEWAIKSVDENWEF

[2] = target: T1, Aspergillus topoisomerase I; experiment: Covalent transfer of 32P radioactivity from DNA to topoisomerase I (phosphate-transfer); format: biochemical; conditions: for phosphate transfer to 105 kDa Aspergillus topoisomerase I: Ho33342 1 mM
Experimental: This phosphate-transfer method was a modification of the procedure described previously by T. C. Rowe et al., J. Biol. Chem., 259, 9177 (1984). Briefly, a 100-μl reaction mixture containing 10 mM Tris-HCl, pH 7.5, 1 mM MgCl2, 0.5 mM dithiothreitol, 30 μg/ml of bovine serum albumin, drug (camptothecin or Hoechst 33342) at an indicated concentration, 50 ng of YEpG DNA labeled with ^32 PdATP by the random primer method (Random Primed Labeling Kit, Boehringer Mannheim), and 300 units of human or Aspergillus topoisomerase I, was incubated at 37° C. for 10 minutes. The reactions were terminated by adding NaOH to 0.18M and EDTA to 2.5 mM. After neutralizing the reaction with a precalibrated amount of Tris-HCl, 9 μl of 0.1M CaCl2 and 7.5 μl of 20% SDS were added, and the volume was adjusted to 300 μl with H2 O.
Five units of Bal31 nuclease (New England, BioLabs) were added, and the sample was digested for 1 hour at 25° C. The reaction was terminated by extraction with 1 volume of phenol. The phenol phase was saved and back-extracted once with an equal volume of 10 mM Tris-HCl, pH 8.0, 1 mM EDTA. The protein-oligonucleotide complexes were then precipitated from the phenol phase by adding 10 volumes of ice-cold acetone and placing on ice for 10 minutes. The pellet was dissolved in SDS sample buffer and analyzed by SDS-PAGE. Gel drying and autoradiography were done as described (Hsiang et al., J. Biol. Chem., 260, 14873 (1985)).

Row | Compound | inhibition (poisoning) of Aspergillus topoisomerase I, in words [1] | sensitivity of Aspergillus versus human topoisomerase I [1] | phosphate transfer to 105 kDa Aspergillus topoisomerase I [2] | phosphate transfer at higher concentrations ([2]; higher concentrations of Ho33342) | inhibition (poisoning) of Aspergillus topoisomerase I, in words ([1]; listed as Ho33342) | concentration at which extensive DNA cleavage was observed [1] [mg/mL] | topoisomerase I-mediated DNA cleavage at the highest concentration ([1]; Ho33342 10 mg/ml) | sensitivity of Aspergillus versus human topoisomerase I ([1]; listed as CPT)
1 | N#Cc1ccc2[nH]c(-c3ccc4[nH]c(-c5ccc6[nH]cnc6c5)nc4c3)nc2c1 [Compound 11, 5-Cyano-2-[2'-(benzimidazol-5"-yl)benzimidazol-5'-yl]benzimidazole] | strongly inhibited (poisoned); also recorded: sensitive | more active against the Aspergillus than the human enzyme | – | – | – | – | – | –
2 | c1ccc(-c2ccc3[nH]c(-c4ccc5[nH]c(-c6ccc7[nH]cnc7c6)nc5c4)nc3c2)cc1 [Compound 13, 5-Phenyl-2-[2'(benzimidazol-5"-yl)benzimidazol-5'-yl]benzimidazole] | strongly inhibited (poisoned); also recorded: sensitive | substantially more sensitive | – | – | – | – | – | –
3 | CCOc1ccc(-c2nc3cc(-c4nc5cc(N6CCN(C)CC6)ccc5[nH]4)ccc3[nH]2)cc1 [Hoechst 33342, 2'-(4-ethoxyphenyl)-5-(4-methyl-1-piperazinyl)-2,5'-bi-1H-benzimidazole] | – | – | stimulated the phosphate transfer | progressively inhibited | potent inhibitors; also recorded: selective sensitivity; also recorded: sensitive | ≤ 0.1 | dramatically inhibited | –
4 | CC[C@@]1(O)C(=O)OCc2c1cc1n(c2=O)Cc2cc3ccccc3nc2-1 [camptothecin] | potent inhibitors; also recorded: sensitive | less active against the Aspergillus than the human enzyme | stimulated the phosphate transfer | – | – | ≤ 1.0 | – | less sensitive to CPT than the human enzyme
